Reference: US20260028365A1 (BIOGEN MA INC., priority 2022, published 2026)
pIC50: −log10 of the molar value.

Molecular target: Tyk2 (Homo sapiens (Human), UniProt P29597)
Experiment: pSTAT4 Cell Assay (MSD, NK92 cells)
Format: cell-based
Settings: MSD
Experimental: The inhibitory potency of compounds of the disclosure against the Tyk2 kinase activity on STAT4 was evaluated using an MSD-platform plate-based assay format. NK92 cells natively expressing STAT4 and Tyk2 were serum-starved to reduce background phosphorylation levels, then cells were treated compounds for 1 hr with a 10-point four-fold dilution series starting at 10 μM. Cells were then stimulated with 30 ng/mL […] for 15 minutes. […] The data were normalized and the percent activity versus log concentration of compound were fitted with a 4-parameter logistic model to generate to generate IC50 curves.

Sequence of Tyk2 (P29597 whole entry): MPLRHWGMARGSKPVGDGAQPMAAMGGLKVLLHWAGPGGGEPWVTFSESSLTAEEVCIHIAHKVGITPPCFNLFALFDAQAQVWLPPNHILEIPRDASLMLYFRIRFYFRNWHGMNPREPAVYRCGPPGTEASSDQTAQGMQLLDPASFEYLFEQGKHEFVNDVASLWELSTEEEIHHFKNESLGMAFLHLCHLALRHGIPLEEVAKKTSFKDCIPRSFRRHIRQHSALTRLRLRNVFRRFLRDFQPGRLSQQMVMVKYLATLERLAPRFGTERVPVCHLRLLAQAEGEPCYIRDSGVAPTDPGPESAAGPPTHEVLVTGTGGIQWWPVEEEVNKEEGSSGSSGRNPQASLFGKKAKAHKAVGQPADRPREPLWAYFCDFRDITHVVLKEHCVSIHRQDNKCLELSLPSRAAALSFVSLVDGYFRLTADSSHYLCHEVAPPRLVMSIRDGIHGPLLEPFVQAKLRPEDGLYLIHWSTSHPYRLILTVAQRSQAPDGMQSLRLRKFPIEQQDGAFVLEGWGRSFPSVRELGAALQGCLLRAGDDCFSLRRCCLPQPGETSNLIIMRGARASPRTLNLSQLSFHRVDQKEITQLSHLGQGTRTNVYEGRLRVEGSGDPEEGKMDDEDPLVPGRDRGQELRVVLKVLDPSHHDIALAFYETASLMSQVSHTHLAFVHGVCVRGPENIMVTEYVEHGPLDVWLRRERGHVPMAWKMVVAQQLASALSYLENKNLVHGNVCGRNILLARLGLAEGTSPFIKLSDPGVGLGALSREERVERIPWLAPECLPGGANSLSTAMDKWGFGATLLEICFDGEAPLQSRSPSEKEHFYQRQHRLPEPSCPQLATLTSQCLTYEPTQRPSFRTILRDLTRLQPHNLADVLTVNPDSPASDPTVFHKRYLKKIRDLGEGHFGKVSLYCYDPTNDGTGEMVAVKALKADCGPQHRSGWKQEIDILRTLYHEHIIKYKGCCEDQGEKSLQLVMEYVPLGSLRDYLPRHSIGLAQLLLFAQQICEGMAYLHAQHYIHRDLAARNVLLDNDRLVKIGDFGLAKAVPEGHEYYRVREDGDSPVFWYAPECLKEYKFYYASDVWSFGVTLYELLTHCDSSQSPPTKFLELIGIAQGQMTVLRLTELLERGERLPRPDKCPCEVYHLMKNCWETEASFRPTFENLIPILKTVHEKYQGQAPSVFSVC

Row | SMILES | pIC50
1 | CC(=O)Nc1cc(Nc2cc(C)nc(C(C)(F)F)n2)c(OCc2cc(C#N)ccn2)cn1 [Example 129, N-(5-((4-cyanopyridin-2-yl)methoxy)-4-((2-(1,1-difluoroethyl)-6-methylpyrimidin-4-yl)amino)pyridin-2-yl)acetamide] | 7.00 to 8.00
2 | CC(=O)Nc1cc(Nc2cc(C)nc(C(C)(F)F)n2)c(OCc2ccc(C)cn2)cn1 [Example 130, N-(4-((2-(1,1-difluoroethyl)-6-methylpyrimidin-4-yl)amino)-5-((5-methylpyridin-2-yl)methoxy)pyridin-2-yl)acetamide] | 7.00 to 8.00
3 | CC(=O)Nc1cc(Nc2cc(C)nc(C(C)(F)F)n2)c(OCc2ccc(C#N)cn2)cn1 [Example 131, N-(5-((5-cyanopyridin-2-yl)methoxy)-4-((2-(1,1-difluoroethyl)-6-methylpyrimidin-4-yl)amino)pyridin-2-yl)acetamide] | 7.00 to 8.00
4 | COc1cccc(COc2cnc(NC(C)=O)cc2Nc2cc(C)nc(C(C)(F)F)n2)n1 [Example 132, N-(4-((2-(1,1-difluoroethyl)-6-methylpyrimidin-4-yl)amino)-5-((6-methoxypyridin-2-y1)methoxy)pyridin-2-yl)acetamide] | 7.00 to 8.00
5 | CC(=O)Nc1cc(Nc2cc(C)nc(C(C)(F)F)n2)c(OCc2cc(C)ccn2)cn1 [Example 133, N-(4-((2-(1,1-difluoroethyl)-6-methylpyrimidin-4-yl)amino)-5-((4-methylpyridin-2-yl)methoxy)pyridin-2-yl)acetamide] | ≥ 8.00
6 | CC(=O)Nc1cc(Nc2cc(C)nc(C(C)(F)F)n2)c(OCc2ncccn2)cn1 [Example 134, N-(4-((2-(1,1-difluoroethyl)-6-methylpyrimidin-4-yl)amino)-5-(pyrimidin-2-ylmethoxy)pyridin-2-yl)acetamide] | 6.00 to 7.00
7 | CC(=O)Nc1cc(Nc2cc(C)nc(C(C)(F)F)n2)c(OCC2CCCOC2)cn1 (stereo not shown) [Example 136, N-(4-((2-(1,1-difluoroethyl)-6-methylpyrimidin-4-yl)amino)-5-((tetrahydro-2H-pyran-3-yl)methoxy)pyridin-2-yl)acetamide] | ≥ 8.00
8 | COC(C)CCOc1cnc(NC(C)=O)cc1Nc1cc(C)nc(C(C)(F)F)n1 (stereo not shown) [Example 137, N-(4-((2-(1,1-difluoroethyl)-6-methylpyrimidin-4-yl)amino)-5-(3-methoxybutoxy)pyridin-2-yl)acetamide] | 7.00 to 8.00
9 | CC(=O)Nc1cc(Nc2cc(C)nc(C34COC(C3)C4)n2)c(-c2cc3n(n2)CCN(C)C3)cn1 [Example 141, N-(4-((2-(2-oxabicyclo[2.1.1]hexan-4-yl)-6-methylpyrimidin-4-yl)amino)-5-(5-methyl-4,5,6,7-tetrahydropyrazolo[1,5-a]pyrazin-2-yl)pyridin-2-yl)acetamide] | ≥ 8.00
10 | COc1cnc(C(C)(F)F)nc1Nc1cc(NC(C)=O)ncc1C1CC1 [Example 143, N-(5-cyclopropyl-4-((2-(1,1-difluoroethyl)-5-methoxypyrimidin-4-yl)amino)pyridin-2-yl)acetamide] | ≤ 6.00
11 | CO[C@H]1C[C@H](Oc2cc(Nc3cc(NC(C)=O)ncc3-c3ccn(C)n3)nc(C(C)(F)F)c2)C1 [Example 148, N-(4-((6-(1,1-difluoroethyl)-4-((1r,3r)-3-methoxycyclobutoxy)pyridin-2-yl)amino)-5-(1-methyl-1H-pyrazol-3-yl)pyridin-2-yl)acetamide] | ≥ 8.00
12 | CC(=O)Nc1cc(Nc2cccc(C(F)CF)n2)c(-c2ccn(C)n2)cn1 (stereo not shown) [Example 149, N-(4-((6-(1,2-difluoroethyl)pyridin-2-yl)amino)-5-(1-methyl-1H-pyrazol-3-yl)pyridin-2-yl)acetamide] | ≥ 8.00
13 | CC(=O)Nc1cc(Nc2cc(C(C)C)nc(C(C)(F)F)n2)c(-c2ccn(C)n2)cn1 [Example 205, N-(4-((2-(1,1-difluoroethyl)-6-isopropylpyrimidin-4-yl)amino)-5-(1-methyl-1H-pyrazol-3-yl)pyridin-2-yl)acetamide] | ≤ 6.00
14 | COCCOc1cc(Nc2cc(NC(C)=O)ncc2-c2ccn(C)n2)nc(C(C)(F)F)n1 [Example 207, N-(4-((2-(1,1-difluoroethyl)-6-(2-methoxyethoxy)pyrimidin-4-yl)amino)-5-(1-methyl-1H-pyrazol-3-yl)pyridin-2-yl)acetamide] | ≥ 8.00
15 | COc1cc(Nc2cc(NC(C)=O)ncc2-c2ccn(C)n2)nc(C(C)(F)F)c1 [Example 209, N-(4-((6-(1,1-difluoroethyl)-4-methoxypyridin-2-yl)amino)-5-(1-methyl-1H-pyrazol-3-yl)pyridin-2-yl)acetamide] | ≥ 8.00
16 | COCCOc1cc(Nc2cc(NC(C)=O)ncc2-c2ccn(C)n2)nc(C(C)(F)F)c1 [Example 210, N-(4-((6-(1,1-difluoroethyl)-4-(2-methoxyethoxy)pyridin-2-yl)amino)-5-(1-methyl-1H-pyrazol-3-yl)pyridin-2-yl)acetamide] | ≥ 8.00

Row | SMILES | pIC50
17 | CC(=O)Nc1cc(Nc2cc(C)nc(C(C)(F)F)n2)c(-c2cc3n(n2)CCNC3=O)cn1 [Example 223, N-(4-((2-(1,1-difluoroethyl)-6-methylpyrimidin-4-yl)amino)-5-(4-oxo-4,5,6,7-tetrahydropyrazolo[1,5-a]pyrazin-2-yl)pyridin-2-yl)acetamide] | 7.00 to 8.00
18 | CC(=O)Nc1cc(Nc2cc(C)nc(C(C)(F)F)n2)c(-c2cc3n(n2)C(O)CN(C)C3)cn1 (stereo not shown) [Example 224, N-(4-((2-(1,1-difluoroethyl)-6-methylpyrimidin-4-yl)amino)-5-(7-hydroxy-5-methyl-4,5,6,7-tetrahydropyrazolo[1,5-a]pyrazin-2-yl)pyridin-2-yl)acetamide] | ≥ 8.00
19 | COCCOc1cc(-c2cnc(NC(C)=O)cc2Nc2cc(C)nc(C(C)(F)F)n2)ncn1 [Example 249, N-(4-((2-(1,1-difluoroethyl)-6-methylpyrimidin-4-yl)amino)-5-(6-(2-methoxyethoxy)pyrimidin-4-yl)pyridin-2-yl)acetamide] | 7.00 to 8.00
20 | CC(=O)Nc1cc(Nc2cc(C)nc(C(C)(F)F)n2)c(-c2cc(N(C)C)cnn2)cn1 [Example 253, N-(4-((2-(1,1-difluoroethyl)-6-methylpyrimidin-4-yl)amino)-5-(5-(dimethylamino)pyridazin-3-yl)pyridin-2-yl)acetamide] | ≤ 6.00
21 | CC(=O)Nc1cc(Nc2ccnc(C(C)(F)F)n2)c(-c2nc3c(s2)CN(C)C3)cn1 [Example 284, N-(4-((2-(1,1-difluoroethyl)pyrimidin-4-yl)amino)-5-(5-methyl-5,6-dihydro-4H-pyrrolo[3,4-d]thiazol-2-yl)pyridin-2-yl)acetamide] | 7.00 to 8.00
22 | CNC(=O)Nc1cc(Nc2cc(C)nc(C(C)(F)F)n2)c(-c2ccc(F)cn2)cn1 [Example 290, 1-(4′-((2-(1,1-difluoroethyl)-6-methylpyrimidin-4-yl)amino)-5-fluoro-[2,3′-bipyridin]-6′-yl)-3-methylurea] | ≥ 8.00
23 | COc1ccc(Oc2cnc(NC(C)=O)cc2Nc2cc(C)nc(C(C)(F)F)n2)nn1 [Example 358, N-(4-((2-(1,1-difluoroethyl)-6-methylpyrimidin-4-yl)amino)-5-((6-methoxypyridazin-3-yl)oxy)pyridin-2-yl)acetamide] | ≤ 6.00
24 | COc1cnc(NC(C)=O)cc1Nc1cc(-c2cnc(C)s2)nc(C(C)(F)F)n1 [Example 387, N-(4-((2-(1,1-difluoroethyl)-6-(2-methylthiazol-5-yl)pyrimidin-4-yl)amino)-5-methoxypyridin-2-yl)acetamide] | ≥ 8.00
25 | COc1cnc(NC(C)=O)cc1Nc1cc(-c2cc(F)c3nn(C)cc3c2)nc(C(C)(F)F)n1 [Example 396, N-(4-((2-(1,1-difluoroethyl)-6-(7-fluoro-2-methyl-2H-indazol-5-yl)pyrimidin-4-yl)amino)-5-methoxypyridin-2-yl)acetamide] | 7.00 to 8.00
26 | CC(=O)Nc1cc(Nc2cc(C)nc(C(C)(F)F)n2)c(OCC2CCN(C)C2)cn1 (stereo not shown) [Example 480, N-(4-((2-(1,1-difluoroethyl)-6-methylpyrimidin-4-yl)amino)-5-((1-methylpyrrolidin-3-yl)methoxy)pyridin-2-yl)acetamide] | 7.00 to 8.00
27 | CCN1CCn2nc(-c3cnc(NC(C)=O)cc3Nc3cc(C)nc(C45COC(C4)C5)n3)cc2C1 [Example 544, N-(4-((2-(2-oxabicyclo[2.1.1]hexan-4-yl)-6-methylpyrimidin-4-yl)amino)-5-(5-ethyl-4,5,6,7-tetrahydropyrazolo[1,5-a]pyrazin-2-yl)pyridin-2-yl)acetamide] | ≥ 8.00
28 | CC(=O)Nc1cc(Nc2cc(C)nc(C(C)(F)F)n2)c(-c2ccc(C(F)F)nn2)cn1 [Example 546, N-(4-((2-(1,1-difluoroethyl)-6-methylpyrimidin-4-yl)amino)-5-(6-(difluoromethyl)pyridazin-3-yl)pyridin-2-yl)acetamide] | ≥ 8.00
29 | CC(=O)Nc1cc(Nc2cc(C)nc(C3CCOC3)n2)c(-c2cc3n(n2)CCN(C)C3)cn1 (stereo not shown) [Example 547, N-(4-((6-methyl-2-(tetrahydrofuran-3-yl)pyrimidin-4-yl)amino)-5-(5-methyl-4,5,6,7-tetrahydropyrazolo[1,5-a]pyrazin-2-yl)pyridin-2-yl)acetamide] | ≥ 8.00
30 | CC(=O)Nc1cc(Nc2cc(C)nc(C(C)(F)F)n2)c(-c2cc3n(n2)CC(C)N(C)C3)cn1 (stereo not shown) [Example 548, N-(4-((2-(1,1-difluoroethyl)-6-methylpyrimidin-4-yl)amino)-5-(5,6-dimethyl-4,5,6,7-tetrahydropyrazolo[1,5-a]pyrazin-2-yl)pyridin-2-yl)acetamide] | ≥ 8.00
31 | COCc1ccc(-c2cnc(NC(C)=O)cc2Nc2cc(C)nc(C3CCCOC3)n2)nc1 (stereo not shown) [Example 571, N-(5-(methoxymethyl)-4′-((6-methyl-2-(tetrahydrO2H-pyran-3-yl)pyrimidin-4-yl)amino)-[2,3′-bipyridin]-6′-yl)acetamide] | 7.00 to 8.00
